Measured values: patent publication US11447517B2, “Galactoside inhibitor of galectins” (GALECTO BIOTECH AB, priority 2018, dated 2022)
pKd: −log10 of the molar value.

Target: galectin-3 (Homo sapiens (Human), UniProt P17931)
Assay: Fluorescence anisotropy assay, inhibition of galectin / fluorescein tagged saccharide probe interaction
Format: binding
Method: Evaluation of Kd Values The affinity of Example 1-71 for galectins were determined by a fluorescence anisotropy assay where the compound was used as an inhibitor of the interaction between galectin and a fluorescein tagged saccharide probe as described Sörme, P., Kahl-Knutsson, B., Huflejt, M., Nilsson, U. J., and Leffler H. (2004) Fluorescence polarization as an analytical tool to evaluate galectin-ligand interactions. Anal. Biochem. 334: 36-47, (Sörme et al., 2004) and Monovalent interactions of Galectin-1 By Salomonsson, Emma; Larumbe, Amaia; Tejler, Johan; Tullberg, Erik; Rydberg, Hanna; Sundin, Anders; Khabut, Areej; Frejd, Torbjorn; Lobsanov, Yuri D.; Rini, James M.; et al, From Biochemistry (2010), 49(44), 9518-9532, (Salomonsson et al., 2010). […] 100 nM albumin was included as a carrier to prevent protein loss at such low concentration of galectin.

galectin-3, sequence (P17931 whole entry): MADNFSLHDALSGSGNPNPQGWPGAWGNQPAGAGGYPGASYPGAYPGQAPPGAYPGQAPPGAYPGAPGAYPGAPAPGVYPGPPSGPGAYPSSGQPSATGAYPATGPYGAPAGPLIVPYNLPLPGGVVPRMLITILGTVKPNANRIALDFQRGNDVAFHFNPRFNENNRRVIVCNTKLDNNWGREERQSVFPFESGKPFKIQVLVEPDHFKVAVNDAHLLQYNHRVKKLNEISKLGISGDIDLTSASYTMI

| SMILES | pKd |
| --- | --- |
| COC1[C@@H](Sc2cc(Cl)ccc2C(=O)N(C)C)OC(CO)[C@H](O)[C@@H]1n1cc(-c2cc(F)c(F)c(F)c2)nn1 (stereo partly drawn) [Example 3, 4-Chloro-N,N-dimethyl-benzamide-2-yl 3-deoxy-3-[4-(3,4,5-trifluorophenyl)-1H-1,2,3-triazol-1-yl]-2-O-methyl-1-thio-α-D-galactopyranoside] | 8.10 |
| COC1[C@@H](Sc2cc(Cl)ccc2C(=O)N(C)C)OC(CO)[C@H](O)[C@@H]1n1cc(-c2cc(F)c(Cl)c(F)c2)nn1 (stereo partly drawn) [Example 4, 4-Chloro-N,N-dimethyl-benzamide-2-yl 3-[4-(4-chloro-3,5-difluorophenyl)-1H-1,2,3-triazol-1-yl]-3-deoxy-2-O-methyl-1-thio-α-D-galactopyranoside] | 7.85 |
| OC[C@H]1O[C@H](Sc2cncc(Br)c2)[C@H](OCC(O)C(F)(F)F)[C@@H](n2cc(-c3cc(F)c(F)c(F)c3)nn2)[C@H]1O (stereo partly drawn) [Example 5, 5-Bromopyridin-3-yl 3-deoxy-3-[4-(3,4,5-trifluorophenyl)-1H-1,2,3-triazol-1-yl]-2-O-(1,1,1-trifluoro-2-hydroxyprop-3-yl)-1-thio-α-D-galactopyranoside] | 7.09 |
| CO[C@@H]1[C@@H](n2cc(-c3cc(F)c(Cl)c(F)c3)nn2)[C@@H](O)[C@@H](CO)O[C@@H]1Sc1cc(Cl)ccc1C(=O)N1CCCCC1 [Example 6, 2-(N-piperidinyl-carbonyl)-5-chlorophenyl 3-[4-(4-chloro-3,5-difluorophenyl)-1H-1,2,3-triazol-1-yl]-3-deoxy-2-O-methyl-1-thio-α-D-galactopyranoside] | 6.92 |
| COC1[C@@H](Sc2cc(Cl)cnc2N2CC3(COC3)C2)OC(CO)[C@H](O)[C@@H]1n1cc(-c2cc(F)c(F)c(F)c2)nn1 (stereo partly drawn) [Example 10, 5-Chloro-2-{N-(2-oxa)-6-azaspiro[3.3]heptanyl}-pyridin-3-yl 3-deoxy-3-[4-(3,4,5-trifluorophenyl)-1H-1,2,3-triazol-1-yl]-2-O-methyl-1-thio-α-D-galactopyranoside] | 7.48 |
| COC1[C@@H](Sc2cc(Cl)cnc2N2CC3(COC3)C2)OC(CO)[C@H](O)[C@@H]1n1cc(-c2cc(F)c(Cl)c(F)c2)nn1 (stereo partly drawn) [Example 11, 5-Chloro-2-{N-(2-oxa)-6-azaspiro[3.3]heptanyl}-pyridin-3-yl 3-[4-(4-chloro-3,5-difluorophenyl)-1H-1,2,3-triazol-1-yl]-3-deoxy-2-O-methyl-1-thio-α-D-galactopyranoside] | 7.31 |
| CO[C@@H]1[C@@H](n2cc(-c3cc(F)c(C)c(F)c3)nn2)[C@@H](O)[C@@H](CO)O[C@@H]1Sc1cc(Cl)cnc1C#N [Example 12, 5-Chloro-2-cyanopyridin-3-yl 3-deoxy-3-[4-(3,5-difluoro-4-methylphenyl)-1H-1,2,3-triazol-1-yl]-2-O-methyl-1-thio-α-D-galactopyranoside] | 7.92 |
| CO[C@@H]1[C@@H](n2cc(-c3cc(F)c(C)c(F)c3)nn2)[C@@H](O)[C@@H](CO)O[C@@H]1Sc1cc(Cl)ccc1C#N [Example 14, 5-Chloro-2-cyanophenyl 3-deoxy-3-[4-(3,5-difluoro-4-methylphenyl)-1H-1,2,3-triazol-1-yl]-2-O-methyl-1-thio-α-D-galactopyranoside] | 7.30 |
| CCO[C@@H]1[C@@H](n2cc(-c3cc(F)c(F)c(F)c3)nn2)[C@@H](O)[C@@H](CO)O[C@@H]1Sc1cc(Cl)cnc1C#N [Example 16, 5-Chloro-2-cyanopyridin-3-yl 3-deoxy-2-O-ethyl-3-[4-(3,4,5-trifluorophenyl)-1H-1,2,3-triazol-1-yl]-1-thio-α-D-galactopyranoside] | 7.23 |
| CCO[C@@H]1[C@@H](n2cc(-c3cc(F)c(F)c(F)c3)nn2)[C@@H](O)[C@@H](CO)O[C@@H]1Sc1cncc(Br)c1 [Example 17, 5-Bromopyridin-3-yl 3-deoxy-3-[4-(3,4,5-trifluorophenyl)-1H-1,2,3-triazol-1-yl]-2-O-ethyl-1-thio-α-D-galactopyranoside] | 7.13 |
| CC(C)O[C@@H]1[C@@H](n2cc(-c3cc(F)c(F)c(F)c3)nn2)[C@@H](O)[C@@H](CO)O[C@@H]1Sc1cncc(Br)c1 [Example 18, 5-Bromopyridin-3-yl 3-deoxy-3-[4-(3,4,5-trifluorophenyl)-1H-1,2,3-triazol-1-yl]-2-O-isopropyl-1-thio-α-D-galactopyranoside] | 6.82 |
| OC[C@H]1O[C@H](Sc2cncc(Br)c2)[C@H](OCCF)[C@@H](n2cc(-c3cc(F)c(F)c(F)c3)nn2)[C@H]1O [Example 19, 5-Bromopyridin-3-yl 3-deoxy-3-[4-(3,4,5-trifluorophenyl)-1H-1,2,3-triazol-1-yl]-2-O-(2-fluoroethyl)-1-thio-α-D-galactopyranoside] | 7.70 |
| CNCCO[C@@H]1[C@@H](n2cc(-c3cc(F)c(F)c(F)c3)nn2)[C@@H](O)[C@@H](CO)O[C@@H]1Sc1cncc(Br)c1 [Example 20, 5-Bromopyridin-3-yl 3-deoxy-3-[4-(3,4,5-trifluorophenyl)-1H-1,2,3-triazol-1-yl]-2-O-[2-(methylamino)ethyl]-1-thio-α-D-galactopyranoside] | 7.15 |
| OCCO[C@@H]1[C@@H](n2cc(-c3cc(F)c(Cl)c(F)c3)nn2)[C@@H](O)[C@@H](CO)O[C@@H]1Sc1ccc(Cl)c(Cl)c1 [Example 21, 3,4-Dichlorophenyl 3-[4-(4-chloro-3,5-difluorophenyl)-1H-1,2,3-triazol-1-yl]-3-deoxy-2-O-(2-hydroxyethyl)-1-thio-α-D-galactopyranoside] | 7.24 |

More lines, now with the values ahead:

| pKd | SMILES |
| --- | --- |
| 7.22 | COC1[C@@H](Sc2cc(Cl)c(C#N)nc2N2CC3(COC3)C2)OC(CO)[C@H](O)[C@@H]1n1cc(-c2cc(F)c(Cl)c(F)c2)nn1 (stereo partly drawn) [Example 22, 5-Chloro-6-cyano-2-{N-(2-oxa)-6-azaspiro[3.3]heptanyl}-pyridin-3-yl 3-[4-(4-chloro-3,5-difluorophenyl)-1H-1,2,3-triazol-1-yl]-3-deoxy-2-O-methyl-1-thio-α-D-galactopyranoside] |
| 7.43 | COC1[C@@H](Sc2cc(Cl)c(C#N)nc2N2CC3(COC3)C2)OC(CO)[C@H](O)[C@@H]1n1cc(-c2cc(F)c(F)c(F)c2)nn1 (stereo partly drawn) [Example 23, 5-Chloro-6-cyano-2-{N-(2-oxa)-6-azaspiro[3.3]heptanyl}-pyridin-3-yl 3-deoxy-3-[4-(3,4,5-trifluorophenyl)-1H-1,2,3-triazol-1-yl]-2-O-methyl-1-thio-α-D-galactopyranoside] |
| 7.55 | CO[C@@H]1[C@@H](n2cc(-c3cc(F)c(F)c(F)c3)nn2)[C@@H](O)[C@@H](CO)O[C@@H]1Sc1cc(Cl)cnc1-c1cncnc1 [Example 24, 5-Chloro-2-(pyrimidin-5-yl)pyridin-3-yl 3-deoxy-3-[4-(3,4,5-trifluorophenyl)-1H-1,2,3-triazol-1-yl]-2-O-methyl-1-thio-α-D-galactopyranoside] |
| 7.62 | CO[C@@H]1[C@@H](n2cc(-c3cc(F)c(F)c(F)c3)nn2)[C@@H](O)[C@@H](CO)O[C@@H]1Sc1cc(Cl)cnc1-c1ccccn1 [Example 25, 5-Chloro-2-(pyridin-2-yl)pyridin-3-yl 3-deoxy-3-[4-(3,4,5-trifluorophenyl)-1H-1,2,3-triazol-1-yl]-2-O-methyl-1-thio-α-D-galactopyranoside] |
| 7.26 | CO[C@@H]1[C@@H](n2cc(-c3cc(F)c(F)c(F)c3)nn2)[C@@H](O)[C@@H](CO)O[C@@H]1Sc1cc(Cl)cnc1-c1cccnc1 [Example 26, 5-Chloro-2-(pyridin-3-yl)pyridin-3-yl 3-deoxy-3-[4-(3,4,5-trifluorophenyl)-1H-1,2,3-triazol-1-yl]-2-O-methyl-1-thio-α-D-galactopyranoside] |
| 7.25 | CO[C@@H]1[C@@H](n2cc(-c3cc(F)c(F)c(F)c3)nn2)[C@@H](O)[C@@H](CO)O[C@@H]1Sc1cc(Cl)cnc1-c1ccncc1 [Example 27, 5-Chloro-2-(pyridin-4-yl)pyridin-3-yl 3-deoxy-3-[4-(3,4,5-trifluorophenyl)-1H-1,2,3-triazol-1-yl]-2-O-methyl-1-thio-α-D-galactopyranoside] |
| 7.44 | CO[C@@H]1[C@@H](n2cc(-c3cc(F)c(F)c(F)c3)nn2)[C@@H](O)[C@@H](CO)O[C@@H]1Sc1cc(Cl)cnc1C1=CCNCC1 [Example 28, 5-Chloro-2-(1,2,3,6-tetrahydropyridin-4-yl)pyridin-3-yl 3-deoxy-3-[4-(3,4,5-trifluorophenyl)-1H-1,2,3-triazol-1-yl]-2-O-methyl-1-thio-α-D-galactopyranoside] |
| 7.17 | CO[C@@H]1[C@@H](n2cc(-c3cc(F)c(F)c(F)c3)nn2)[C@@H](O)[C@@H](CO)O[C@@H]1Sc1cc(Cl)cnc1C1=CCNC1 [Example 29, 5-Chloro-2-(3-pyrrolin-3-yl)pyridin-3-yl 3-deoxy-3-[4-(3,4,5-trifluorophenyl)-1H-1,2,3-triazol-1-yl]-2-O-methyl-1-thio-α-D-galactopyranoside] |
| 7.25 | CO[C@@H]1[C@@H](n2cc(-c3cc(F)c(F)c(F)c3)nn2)[C@@H](O)[C@@H](CO)O[C@@H]1Sc1cc(Cl)cnc1-c1ncco1 [Example 30, 5-Chloro-2-(oxazol-2-yl)pyridin-3-yl 3-deoxy-3-[4-(3,4,5-trifluorophenyl)-1H-1,2,3-triazol-1-yl]-2-O-methyl-1-thio-α-D-galactopyranoside] |
| 6.52 | CO[C@@H]1[C@@H](n2cc(-c3cc(F)c(F)c(F)c3)nn2)[C@@H](O)[C@@H](CO)O[C@@H]1Sc1cc(Cl)cnc1-c1nccs1 [Example 31, 5-Chloro-2-(thiazol-2-yl)pyridin-3-yl 3-deoxy-3-[4-(3,4,5-trifluorophenyl)-1H-1,2,3-triazol-1-yl]-2-O-methyl-1-thio-α-D-galactopyranoside] |
